Biological target: T1, Prostate-specific membrane antigen (PSMA) (Homo sapiens, UniProt Q04609)
T1 construct: gene FOLH1; native full-length membrane protein on intact LNCaP prostate cancer cells; homodimer (known biology)
Assay: competitive radioligand binding, LNCaP cells, filter plates
Type: cell-based
Conditions: 0.75 nM [68Ga]Ga-PSMA-10 tracer, room temperature, 45 min; non-labelled ligand (no metal)
Description: competitive radioligand binding, LNCaP cells, filter plates on Prostate-specific membrane antigen (PSMA)

T1 sequence (Q04609 whole entry): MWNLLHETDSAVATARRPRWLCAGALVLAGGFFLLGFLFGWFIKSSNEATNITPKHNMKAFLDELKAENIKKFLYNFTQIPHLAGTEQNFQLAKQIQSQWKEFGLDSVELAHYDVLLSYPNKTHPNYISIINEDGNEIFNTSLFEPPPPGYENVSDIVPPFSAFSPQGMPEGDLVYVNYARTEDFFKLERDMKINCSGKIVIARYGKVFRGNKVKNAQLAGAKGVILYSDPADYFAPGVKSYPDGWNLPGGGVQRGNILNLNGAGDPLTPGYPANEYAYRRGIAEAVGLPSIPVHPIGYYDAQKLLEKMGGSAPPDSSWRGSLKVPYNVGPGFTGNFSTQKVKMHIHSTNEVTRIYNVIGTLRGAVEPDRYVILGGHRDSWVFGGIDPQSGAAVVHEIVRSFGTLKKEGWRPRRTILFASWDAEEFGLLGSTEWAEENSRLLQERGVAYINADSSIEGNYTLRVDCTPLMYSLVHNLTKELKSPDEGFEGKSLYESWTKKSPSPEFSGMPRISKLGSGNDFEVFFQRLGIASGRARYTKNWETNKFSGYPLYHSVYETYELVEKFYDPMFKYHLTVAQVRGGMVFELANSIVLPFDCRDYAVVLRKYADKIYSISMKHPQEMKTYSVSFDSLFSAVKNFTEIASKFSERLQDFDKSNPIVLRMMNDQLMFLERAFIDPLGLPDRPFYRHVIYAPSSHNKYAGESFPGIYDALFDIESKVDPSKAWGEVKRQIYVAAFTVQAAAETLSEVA

SMILES: CN(CC(=O)O)C1(CCCCC(=O)NCCNc2c(NCCCC[C@H](NC(=O)N[C@@H](CCC(=O)O)C(=O)O)C(=O)O)c(=O)c2=O)CN(CC(=O)O)CCN(CC(=O)O)C1 [compound 14, DATA^5m.SA.KuE]
- IC50: 51.1 ± 5.5 nM

SMILES: O=C(O)CCc1ccc(O)c(CN(CCN(CC(=O)O)Cc2cc(CCC(=O)NCCCCCC(=O)NCCCC[C@H](NC(=O)N[C@@H](CCC(=O)O)C(=O)O)C(=O)O)ccc2O)CC(=O)O)c1 [PSMA-11]
- IC50: 26.2 ± 2.4 nM
